This passage reports IC50 results from US10273237B2, “Imidazopyridazine compounds useful as modulators of IL-12, IL-23 and/or IFN-α responses” (BRISTOL-MYERS SQUIBB COMPANY, priority 2013, dated 2019).

The first assay relates to IL-23-stimulated Kit225 T cells with STAT-dependent luciferase reporter. Kind of assay: Kit225 T cell assay, STAT-dependent luciferase reporter, IL-23 stimulated. In kind it is cell-based, human. The following applies: 20 ng/mL human recombinant IL-23, 5-6 hours, read-out: IL-23 Kit225 Reporter, LE (IC50). How it is done: (§1) Kit225 T cells with a stably-integrated STAT-dependent luciferase reporter were plated in RPMI (GIBCO) containing 10% heat-inactivated FBS (GIBCO) and 100 U/mL PenStrep (GIBCO). The cells were then stimulated with either 20 ng/mL human recombinant IL-23 or 200 U/mL human recombinant IFNα (PBL InterferonSource) for 5-6 hours. Luciferase expression was measured using the STEADY-GLO® Luciferase Assay System (PROMEGA®) according to the manufacturer's instructions.
In general terms: A reporter such as luciferase makes a cellular process visible.
What is called IC50 is the midpoint of a concentration-inhibition curve. `CNc1cc(Nc2cccn(-c3cccc(C)n3)c2=O)nn2c(C(=O)NC3CCC3)cnc12` [Example 47]: the IC50 was 110 nM.
In the case of `CNc1cc(Nc2cccn(-c3cccc(C)n3)c2=O)nn2c(C(=O)N[C@@H]3C[C@@H]3F)cnc12` [Example 49], the IC50 was 20 nM.
With `CNc1cc(Nc2cc(F)cn(C3CC3)c2=O)nn2c(C(=O)NC3(C#N)CC3)cnc12` [Example 51], the IC50 came out at 160 nM.
For the compound `CNc1cc(Nc2cccn(-c3ncccn3)c2=O)nn2c(C(=O)NC3CCC3)cnc12` [Example 52], the IC50 stood at 210 nM.
For `CNc1cc(Nc2cccn(-c3cccc(F)c3)c2=O)nn2c(C(=O)NC3(C#N)CC3)cnc12` [Example 53], the IC50 was determined as 170 nM.
`CNc1cc(Nc2cccn(-c3ncccn3)c2=O)nn2c(C(=O)N[C@@H]3C[C@@H]3F)cnc12` [Example 55]: the IC50 is 180 nM.
For `CNc1cc(Nc2cccn(-c3ccon3)c2=O)nn2c(C(=O)NC3CCC3)cnc12` [Example 56], the IC50 worked out at 60 nM.
On to `CNc1cc(Nc2cccn(C)c2=O)nn2c(C(=O)N[C@@H]3CCOC3)cnc12` [Example 57], for which the IC50 was 300 nM.
With `CNc1cc(Nc2cccn(C)c2=O)nn2c(C(=O)N[C@H]3CCOC3)cnc12` [Example 58], the IC50 worked out at 90 nM.
Still for that read-out and setting: the value for `CNc1cc(Nc2cccn(-c3ccccn3)c2=O)nn2c(C(=O)N[C@@H]3CCOC3)cnc12` [Example 62] was 640 nM; that for `CNc1cc(Nc2cccn(-c3ccc(C)nn3)c2=O)nn2c(C(=O)NC3CCC3)cnc12` [Example 64] was 40 nM.
`CNc1cc(Nc2cccn(-c3ccc(C)nn3)c2=O)nn2c(C(=O)N[C@@H]3C[C@@H]3F)cnc12` [Example 65]: the IC50 was 60 nM.
As for `CCNC(=O)c1cnc2c(NC)cc(Nc3cccn(-c4ccccn4)c3=O)nn12` [Example 66], the half-inhibitory concentration (IC50) was 90 nM.
In the case of `CCNC(=O)c1cnc2c(NC)cc(Nc3cccn(-c4cccc(F)n4)c3=O)nn12` [Example 67], the IC50 is 70 nM.
`CNc1cc(Nc2cccn(C)c2=O)nn2c(C(=O)NC3CCC3)cnc12` [Example 68]: the IC50 is 30 nM.
Take `CNc1cc(Nc2cncn(-c3ccccn3)c2=O)nn2c(C(=O)NC3CCC3)cnc12` [Example 71]: the IC50 was found to be 210 nM.
On to `CNc1cc(Nc2cccn(-c3cccc(C(C)(C)O)n3)c2=O)nn2c(C(=O)NC3CCC3)cnc12` [Example 77], for which the half-maximal inhibitory concentration (IC50) came to 20 nM.
As for `CNc1cc(Nc2cncn(-c3ccc(C)nn3)c2=O)nn2c(C(=O)NC3CCC3)cnc12` [Example 78], the IC50 came to 230 nM.
Regarding `CNc1cc(Nc2cncn(-c3ccc(C)nn3)c2=O)nn2c(C(=O)N[C@@H]3C[C@@H]3F)cnc12` [Example 80], the IC50 turned out to be 1740 nM.
As to `CNc1cc(Nc2cccn(-c3cccc(C(C)(C)O)n3)c2=O)nn2c(C(=O)NC3CC3)cnc12` [Example 81], the IC50 is 180 nM.
With `CNc1cc(Nc2cccn(-c3cccc(C(C)(C)O)n3)c2=O)nn2c(C(=O)N[C@@H]3C[C@@H]3F)cnc12` [Example 82], the IC50 is 40 nM.
`CNc1cc(Nc2nccn(C)c2=O)nn2c(C(=O)NC3CCC3)cnc12` [Example 84]: the IC50 was 3860 nM.
Turning to `CNc1cc(Nc2cc(C)cn(-c3ccc(C)nn3)c2=O)nn2c(C(=O)NC3CC3)cnc12` [Example 91], the IC50 came to 230 nM.
In the case of `CNc1cc(Nc2cc(C)cn(-c3ccc(C)nn3)c2=O)nn2c(C(=O)NC3CCC3)cnc12` [Example 92], the IC50 was 420 nM.
As to `CNc1cc(Nc2cc(F)cn(-c3ccc(C)nn3)c2=O)nn2c(C(=O)NC3CC3)cnc12` [Example 94], the concentration for half-maximal inhibition (IC50) came out at 40 nM.
On to `CNc1cc(Nc2cccn(-c3ccc(C)nn3)c2=O)nn2c(C(=O)NC3CCCC3)cnc12` [Example 95], for which the IC50 amounted to 160 nM.

A further assay relates to IFNα-stimulated Kit225 T cells with STAT-dependent luciferase reporter. In words: Kit225 T cell assay, STAT-dependent luciferase reporter, IFNα stimulated. The note with it: 200 U/mL human recombinant IFNα, 5-6 hours, read-out: IFNa Kit225 Reporter, LE (IC50). Format: cell-based, human. How it is done: as §1
In the case of `CNc1cc(Nc2cccn(-c3cccc(C)n3)c2=O)nn2c(C(=O)NC3CCC3)cnc12` [Example 47], the half-maximal inhibitory concentration (IC50) was 40 nM.
Turning to `CNc1cc(Nc2cccn(-c3cccc(C)n3)c2=O)nn2c(C(=O)N[C@@H]3C[C@@H]3F)cnc12` [Example 49], the IC50 was 50 nM.
On to `CNc1cc(Nc2cc(F)cn(C3CC3)c2=O)nn2c(C(=O)NC3(C#N)CC3)cnc12` [Example 51], for which the IC50 came to 220 nM.
Still for that read-out and setting: the result for `CNc1cc(Nc2cccn(-c3ncccn3)c2=O)nn2c(C(=O)NC3CCC3)cnc12` [Example 52] reads 130 nM; that for `CNc1cc(Nc2cccn(-c3cccc(F)c3)c2=O)nn2c(C(=O)NC3(C#N)CC3)cnc12` [Example 53], 80 nM; that for `CNc1cc(Nc2cccn(-c3ncccn3)c2=O)nn2c(C(=O)N[C@@H]3C[C@@H]3F)cnc12` [Example 55], 230 nM.
With `CNc1cc(Nc2cccn(-c3ccon3)c2=O)nn2c(C(=O)NC3CCC3)cnc12` [Example 56], the IC50 came to 30 nM.
On to `CNc1cc(Nc2cccn(C)c2=O)nn2c(C(=O)N[C@@H]3CCOC3)cnc12` [Example 57], for which the IC50 is 520 nM.
Take `CNc1cc(Nc2cccn(C)c2=O)nn2c(C(=O)N[C@H]3CCOC3)cnc12` [Example 58]: the IC50 was 970 nM.
With `CNc1cc(Nc2cccn(-c3ccccn3)c2=O)nn2c(C(=O)N[C@@H]3CCOC3)cnc12` [Example 62], the IC50 stood at 270 nM.
`CNc1cc(Nc2cccn(-c3ccc(C)nn3)c2=O)nn2c(C(=O)NC3CCC3)cnc12` [Example 64]: the IC50 was 30 nM.
As for `CNc1cc(Nc2cccn(-c3ccc(C)nn3)c2=O)nn2c(C(=O)N[C@@H]3C[C@@H]3F)cnc12` [Example 65], the IC50 stood at 40 nM.
Still for that read-out and setting: the value for `CCNC(=O)c1cnc2c(NC)cc(Nc3cccn(-c4ccccn4)c3=O)nn12` [Example 66] was 180 nM; that for `CCNC(=O)c1cnc2c(NC)cc(Nc3cccn(-c4cccc(F)n4)c3=O)nn12` [Example 67] was 140 nM.
As for `CNc1cc(Nc2cccn(C)c2=O)nn2c(C(=O)NC3CCC3)cnc12` [Example 68], the IC50 is 10 nM.
In the case of `CNc1cc(Nc2cncn(-c3ccccn3)c2=O)nn2c(C(=O)NC3CCC3)cnc12` [Example 71], the IC50 was 120 nM.
Consider `CNc1cc(Nc2cccn(-c3cccc(C(C)(C)O)n3)c2=O)nn2c(C(=O)NC3CCC3)cnc12` [Example 77], for which the IC50 came to 30 nM.
Same read-out and setting: the value for `CNc1cc(Nc2cncn(-c3ccc(C)nn3)c2=O)nn2c(C(=O)NC3CCC3)cnc12` [Example 78] was 180 nM.
For the compound `CNc1cc(Nc2cncn(-c3ccc(C)nn3)c2=O)nn2c(C(=O)N[C@@H]3C[C@@H]3F)cnc12` [Example 80], the IC50 was 330 nM.
On to `CNc1cc(Nc2cccn(-c3cccc(C(C)(C)O)n3)c2=O)nn2c(C(=O)NC3CC3)cnc12` [Example 81], for which the IC50 was found to be 120 nM.
Turning to `CNc1cc(Nc2cccn(-c3cccc(C(C)(C)O)n3)c2=O)nn2c(C(=O)N[C@@H]3C[C@@H]3F)cnc12` [Example 82], the IC50 stood at 40 nM.
With `CNc1cc(Nc2nccn(C)c2=O)nn2c(C(=O)NC3CCC3)cnc12` [Example 84], the IC50 is 4270 nM.
On to `CNc1cc(Nc2cc(C)cn(-c3ccc(C)nn3)c2=O)nn2c(C(=O)NC3CC3)cnc12` [Example 91], for which the IC50 amounted to 150 nM.
As for `CNc1cc(Nc2cc(C)cn(-c3ccc(C)nn3)c2=O)nn2c(C(=O)NC3CCC3)cnc12` [Example 92], the IC50 is 620 nM.
Still for that read-out and setting: the value for `CNc1cc(Nc2cc(F)cn(-c3ccc(C)nn3)c2=O)nn2c(C(=O)NC3CC3)cnc12` [Example 94] was 50 nM.
On the same count and under the same terms, the result for `CNc1cc(Nc2cccn(-c3ccc(C)nn3)c2=O)nn2c(C(=O)NC3CCCC3)cnc12` [Example 95] reads 150 nM.
